Data: ChEMBL document CHEMBL3885881, “DrugMatrix”

Species on record: Rattus norvegicus
Assay: DrugMatrix - Regimen: Daily Repeat
Format: toxicity, organism-based, Sprague-Dawley
Design: regimen Daily Repeat, gender Male, age 6-8 weeks
Conditions: in vivo, po, route oral GAVAGE, vehicle .5 % CMC; for BASOPHIL / EOSINOPHIL / ERYTHROCYTE COUNT / HEMATOCRIT / HEMOGLOBIN / LEUKOCYTE COUNT / LYMPHOCYTE / MEAN CORPUSCULAR HEMOGLOBIN / MEAN CORPUSCULAR HEMOGLOBIN CONCENTRATION / MEAN CORPUSCULAR VOLUME / MONOCYTE / NEUTROPHIL / PLATELET COUNT: tissue Blood; for ALANINE AMINOTRANSFERASE / ALBUMIN / ALKALINE PHOSPHATASE / ASPARTATE AMINOTRANSFERASE / BLOOD UREA NITROGEN / CHLORIDE / CHOLESTEROL / CREATINE PHOSPHOKINASE / CREATININE / GLUCOSE / PHOSPHORUS / POTASSIUM / SODIUM / TOTAL BILIRUBIN / TOTAL PROTEIN: tissue Plasma
[1] = 0 mg/kg, 72 h, dose level Control, time 3 day
[2] = 0 mg/kg, 120 h, dose level Control, time 5 day
[3] = 120 mg/kg, 72 h, dose level Low, time 3 day
[4] = 120 mg/kg, 120 h, dose level Low, time 5 day
[5] = 1500 mg/kg, 72 h, dose level High, time 3 day
[6] = 1500 mg/kg, 120 h, dose level High, time 5 day

With `CC1CC(OC(=O)C(O)c2ccccc2)CC(C)(C)C1` (stereo not drawn) [CYCLANDELATE] the BASOPHIL [1] was 0%, the EOSINOPHIL [1] was 0% and the “ERYTHROCYTE COUNT” value [1] was 6.34 x10E6/uL. The HEMATOCRIT [1] was 37.62%, the HEMOGLOBIN [1] was 14.82 G/DL and the “LEUKOCYTE COUNT” value [1] was 11.18 x10E3/uL. For the same molecule, the LYMPHOCYTE [1] was 87.5%, the “MEAN CORPUSCULAR HEMOGLOBIN” value [1] was 23.48 pg and the “MEAN CORPUSCULAR HEMOGLOBIN CONCENTRATION” value [1] was 39.5 G/DL. The “MEAN CORPUSCULAR VOLUME” value [1] was 59.45 fL, the MONOCYTE [1] was 1.67% and the NEUTROPHIL [1] was 10.83%. For the same molecule, the “PLATELET COUNT” value [1] was 1074.83 x10E3/uL, the “ALANINE AMINOTRANSFERASE” value [1] was 36.5 u/L and the ALBUMIN [1] was 3.9 G/DL. The “ALKALINE PHOSPHATASE” value [1] was 370.17 u/L, the “ASPARTATE AMINOTRANSFERASE” value [1] was 63.17 u/L and the “BLOOD UREA NITROGEN” value [1] was 16.83 mg/dL. The CHLORIDE [1] was 99.33 MEQ/L, the CHOLESTEROL [1] was 64.33 mg/dL and the “CREATINE PHOSPHOKINASE” value [1] was 127 u/L. For the same molecule, the CREATININE [1] was 0.55 mg/dL, the GLUCOSE [1] was 173.5 mg/dL and the PHOSPHORUS [1] was 10.08 mg/dL. For the same molecule, the POTASSIUM [1] was 6.23 MEQ/L, the SODIUM [1] was 143.5 MEQ/L and the “TOTAL BILIRUBIN” value [1] was 0.52 mg/dL. The “TOTAL PROTEIN” value [1] was 6.35 G/DL, the BASOPHIL [2] was 0% and the EOSINOPHIL [2] was 0.17%. For the same molecule, the “ERYTHROCYTE COUNT” value [2] was 6.12 x10E6/uL, the HEMATOCRIT [2] was 37.08% and the HEMOGLOBIN [2] was 14.82 G/DL. For the same molecule, the “LEUKOCYTE COUNT” value [2] was 11.87 x10E3/uL, the LYMPHOCYTE [2] was 83.33% and the “MEAN CORPUSCULAR HEMOGLOBIN” value [2] was 24.25 pg. For the same molecule, the “MEAN CORPUSCULAR HEMOGLOBIN CONCENTRATION” value [2] was 39.97 G/DL, the “MEAN CORPUSCULAR VOLUME” value [2] was 60.65 fL and the MONOCYTE [2] was 1.5%. For the same molecule, the NEUTROPHIL [2] was 15%, the “PLATELET COUNT” value [2] was 1042.83 x10E3/uL and the “ALANINE AMINOTRANSFERASE” value [2] was 46 u/L. For the same molecule, the ALBUMIN [2] was 3.82 G/DL, the “ALKALINE PHOSPHATASE” value [2] was 369.5 u/L and the “ASPARTATE AMINOTRANSFERASE” value [2] was 65 u/L. The “BLOOD UREA NITROGEN” value [2] was 16.33 mg/dL, the CHLORIDE [2] was 100.67 MEQ/L and the CHOLESTEROL [2] was 57.17 mg/dL. For the same molecule, the “CREATINE PHOSPHOKINASE” value [2] was 130 u/L, the CREATININE [2] was 0.53 mg/dL and the GLUCOSE [2] was 163.33 mg/dL. For the same molecule, the PHOSPHORUS [2] was 9.53 mg/dL, the POTASSIUM [2] was 6.27 MEQ/L and the SODIUM [2] was 144.83 MEQ/L. The “TOTAL BILIRUBIN” value [2] was 0.55 mg/dL, the “TOTAL PROTEIN” value [2] was 6.32 G/DL and the BASOPHIL [3] was 0%. For the same molecule, the EOSINOPHIL [3] was 0.67%, the “ERYTHROCYTE COUNT” value [3] was 6.2 x10E6/uL and the HEMATOCRIT [3] was 37.27%. The HEMOGLOBIN [3] was 14.57 G/DL, the “LEUKOCYTE COUNT” value [3] was 11.3 x10E3/uL and the LYMPHOCYTE [3] was 86.33%. The “MEAN CORPUSCULAR HEMOGLOBIN” value [3] was 23.5 pg, the “MEAN CORPUSCULAR HEMOGLOBIN CONCENTRATION” value [3] was 39.1 G/DL and the “MEAN CORPUSCULAR VOLUME” value [3] was 60.1 fL. The MONOCYTE [3] was 1.33%, the NEUTROPHIL [3] was 11.67% and the “PLATELET COUNT” value [3] was 1168 x10E3/uL. The “ALANINE AMINOTRANSFERASE” value [3] was 38.33 u/L, the ALBUMIN [3] was 3.93 G/DL and the “ALKALINE PHOSPHATASE” value [3] was 369.67 u/L. The “ASPARTATE AMINOTRANSFERASE” value [3] was 55.67 u/L, the “BLOOD UREA NITROGEN” value [3] was 14 mg/dL and the CHLORIDE [3] was 99 MEQ/L. The CHOLESTEROL [3] was 67.67 mg/dL, the “CREATINE PHOSPHOKINASE” value [3] was 114.33 u/L and the CREATININE [3] was 0.53 mg/dL. The GLUCOSE [3] was 156 mg/dL, the PHOSPHORUS [3] was 10.37 mg/dL and the POTASSIUM [3] was 6.13 MEQ/L. For the same molecule, the SODIUM [3] was 144.67 MEQ/L, the “TOTAL BILIRUBIN” value [3] was 0.37 mg/dL and the “TOTAL PROTEIN” value [3] was 6.33 G/DL. For the same molecule, the BASOPHIL [4] was 0%, the EOSINOPHIL [4] was 0% and the “ERYTHROCYTE COUNT” value [4] was 5.8 x10E6/uL. For the same molecule, the HEMATOCRIT [4] was 35%, the HEMOGLOBIN [4] was 14.13 G/DL and the “LEUKOCYTE COUNT” value [4] was 12.1 x10E3/uL. The LYMPHOCYTE [4] was 90.33%, the “MEAN CORPUSCULAR HEMOGLOBIN” value [4] was 24.37 pg and the “MEAN CORPUSCULAR HEMOGLOBIN CONCENTRATION” value [4] was 40.4 G/DL. For the same molecule, the “MEAN CORPUSCULAR VOLUME” value [4] was 60.3 fL, the MONOCYTE [4] was 0.67% and the NEUTROPHIL [4] was 9%. The “PLATELET COUNT” value [4] was 1005.67 x10E3/uL, the “ALANINE AMINOTRANSFERASE” value [4] was 37 u/L and the ALBUMIN [4] was 3.63 G/DL. For the same molecule, the “ALKALINE PHOSPHATASE” value [4] was 308.67 u/L, the “ASPARTATE AMINOTRANSFERASE” value [4] was 59 u/L and the “BLOOD UREA NITROGEN” value [4] was 13.33 mg/dL. For the same molecule, the CHLORIDE [4] was 99.67 MEQ/L, the CHOLESTEROL [4] was 64 mg/dL and the “CREATINE PHOSPHOKINASE” value [4] was 121.33 u/L. It also gave a CREATININE [4] of 0.53 mg/dL, a GLUCOSE [4] of 159 mg/dL and a PHOSPHORUS [4] of 10.83 mg/dL. For the same molecule, the POTASSIUM [4] was 6.27 MEQ/L, the SODIUM [4] was 145.33 MEQ/L and the “TOTAL BILIRUBIN” value [4] was 0.37 mg/dL. For the same molecule, the “TOTAL PROTEIN” value [4] was 5.93 G/DL, the BASOPHIL [5] was 0% and the EOSINOPHIL [5] was 0%. For the same molecule, the “ERYTHROCYTE COUNT” value [5] was 5.97 x10E6/uL, the HEMATOCRIT [5] was 37.13% and the HEMOGLOBIN [5] was 14.77 G/DL. The “LEUKOCYTE COUNT” value [5] was 13.43 x10E3/uL, the LYMPHOCYTE [5] was 84.67% and the “MEAN CORPUSCULAR HEMOGLOBIN” value [5] was 24.83 pg. The “MEAN CORPUSCULAR HEMOGLOBIN CONCENTRATION” value [5] was 39.77 G/DL, the “MEAN CORPUSCULAR VOLUME” value [5] was 62.27 fL and the MONOCYTE [5] was 0.33%. The NEUTROPHIL [5] was 15%, the “PLATELET COUNT” value [5] was 1199 x10E3/uL and the “ALANINE AMINOTRANSFERASE” value [5] was 42.67 u/L. The ALBUMIN [5] was 3.77 G/DL, the “ALKALINE PHOSPHATASE” value [5] was 377.33 u/L and the “ASPARTATE AMINOTRANSFERASE” value [5] was 59.67 u/L. For the same molecule, the “BLOOD UREA NITROGEN” value [5] was 13.67 mg/dL, the CHLORIDE [5] was 98.33 MEQ/L and the CHOLESTEROL [5] was 67.67 mg/dL. For the same molecule, the “CREATINE PHOSPHOKINASE” value [5] was 127.67 u/L, the CREATININE [5] was 0.57 mg/dL and the GLUCOSE [5] was 161.67 mg/dL. For the same molecule, the PHOSPHORUS [5] was 11.5 mg/dL, the POTASSIUM [5] was 6.17 MEQ/L and the SODIUM [5] was 143.33 MEQ/L. The “TOTAL BILIRUBIN” value [5] was 0.57 mg/dL, the “TOTAL PROTEIN” value [5] was 6.03 G/DL and the BASOPHIL [6] was 0%. For the same molecule, the EOSINOPHIL [6] was 0.5%, the “ERYTHROCYTE COUNT” value [6] was 5.77 x10E6/uL and the HEMATOCRIT [6] was 35.95%. For the same molecule, the HEMOGLOBIN [6] was 14.35 G/DL, the “LEUKOCYTE COUNT” value [6] was 10.4 x10E3/uL and the LYMPHOCYTE [6] was 91.5%. For the same molecule, the “MEAN CORPUSCULAR HEMOGLOBIN” value [6] was 24.9 pg, the “MEAN CORPUSCULAR HEMOGLOBIN CONCENTRATION” value [6] was 39.9 G/DL and the “MEAN CORPUSCULAR VOLUME” value [6] was 62.4 fL. For the same molecule, the MONOCYTE [6] was 0%, the NEUTROPHIL [6] was 8% and the “PLATELET COUNT” value [6] was 1077.5 x10E3/uL. For the same molecule, the “ALANINE AMINOTRANSFERASE” value [6] was 34.67 u/L, the ALBUMIN [6] was 3.77 G/DL and the “ALKALINE PHOSPHATASE” value [6] was 393 u/L. The “ASPARTATE AMINOTRANSFERASE” value [6] was 55.67 u/L, the “BLOOD UREA NITROGEN” value [6] was 14.33 mg/dL and the CHLORIDE [6] was 100 MEQ/L. The CHOLESTEROL [6] was 87 mg/dL, the “CREATINE PHOSPHOKINASE” value [6] was 123.67 u/L and the CREATININE [6] was 0.57 mg/dL. It also gave a GLUCOSE [6] of 158 mg/dL, a PHOSPHORUS [6] of 11.47 mg/dL and a POTASSIUM [6] of 6.4 MEQ/L. The SODIUM [6] was 144.33 MEQ/L, the “TOTAL BILIRUBIN” value [6] was 0.37 mg/dL and the “TOTAL PROTEIN” value [6] was 6.17 G/DL.
